Data on two molecules can be found in patent US7795208B2, “Methods of using deacetylase inhibitors to promote cell differentiation and regeneration” (The Salk Institute for Biological Study, priority 2001, dated 2010).

Each structure is given as a SMILES string. “And” between values parts separate entries of the source, which are not always exact repeats. Identical values can stand only once.

The test system of data set [1] is mouse embryos. Kind of data set: Embryos of pregnant MLC1/3F-nLacZ mice exposed in utero (somitogenesis, muscle gene expression). The format is in vivo.
Experimental: MLC1/3F-nLacZ pregnant mice (E 8.5) received intra peritoneal injection of 15 μg of TSA (WAKO chemicals, Neuss Germany) or VPA (Sigma) at E 8.5 and E 9.5 as described in Faiella, A., et al., Hum Mol Genet 9:227-36 (2000), and Nervi, C., et al., Cancer Res 61:1247-9 (2001). VPA was dissolved in distilled water and administered at doses of 6 mg/mice (about 150 μg/ml) every 12 h at E 8.5, E 9, E 9.5, E 10 as described in Faiella et al. (2000). […] Mice were sacrificed at E 10.5, and the embryos were observed under a dissecting stereo-microscope to evaluate their viability, presence of external malformations, and number of somites. Embryos were fixed in 4% paraformaldehyde for histology and X-Gal staining or immunocytochemistry using antibodies against MyoD and myosin heavy chains as described in Tajbakhsh, S., et al., Neuron 13:813-21 (1994).
DI was administered intraperitoneally to pregnant mice (at a concentration of 0.5 to 1 mg/Kg for TSA and 200 mg/Kg for VPA) at post-implantation stages of E 8.5, and the pregnant mice were sacrificed at 10.5, when MyoD expression is clearly detectable in the myotomes. […] In Table 2, Somites of MLC1/3F-nLacZ mice (injected at day 8.5 and sacrificed at day 10.5) were scored after staining the embryos to detect β-galactosidase activity.
In data set [2] the test system is MLC3F-lacZ-nls construct. Kind of data set: β-Galactosidase assay of cells transfected with MLC3F-lacZ-nls. The class given is cell-based, mouse. Particulars: transfected cells exposed in GM, then DM 48 hours; vs non-treated cells. How it is done: FIGS. 4A-C illustrate that embryos exposed to DI display enhanced somitogenesis and increased muscle gene expression. […] Cells were then exposed to TSA (50 nM) in GM and subsequently switched to DM for 48 hours. Cells were stained to detect β-galactosidase activity. FIG. 4B is a picture of E 10.5 embryos derived from MLC1/3F-nLacZ transgenic mice exposed to either TSA or VPA treatment (see Example 1) and stained for 1 hour at 30° C. to detect β-galactosidase activity. […] FIG. 4C is a Western blot of extracts derived from total embryos exposed to either TSA or VPA; MHC is detected.
Cells transfected with MLC-lacZ-nls were washed twice in PBS, fixed in 4% paraformaldeheyde-PBS for 5 min, washed twice in PBS, and stained for 2-5 hrs with 5 mM potassium ferrycyanide, 5 mM potassium ferrocyanide, 2 mM MgCl2, 1 mg/ml X-gal (5-bromo-4-chloro-3-indolyl-β-D-galactoside).

The test system of data set [3] is C2C12 cells. Kind of data set: Differentiation and muscle protein expression of C2C12 myoblasts exposed to deacetylase inhibitors (MHC immunofluorescence, Western blot, RT-PCR, FACS). The note with it: for Nuclei/MHC-Positive Cells (number of nuclei) / percentage of nuclei detected in MHC-positive cells: C2C12, DI 24 hours in GM, then DM without DI, Tr. 1 and Tr. 2; for MHC expression and frequency of MHC-positive multinucleated cells: undifferentiated myoblasts exposed in GM, differentiated in the absence of DI, vs untreated cells. The format is cell-based, mouse. How it is done:
Mouse muscle myoblast C2C12 cells (obtained from the American Type Culture Collection, ATCC CRL-1772) and CC42 cells (from Dr. Kenneth Walsh, Tufts University School of Medicine) were cultured in DMEM supplemented with 20% fetal bovine serum, 2 mM glutamine and 1× kanamycin (growth medium, GM). Cellular differentiation was induced with DMEM supplemented with 2% horse serum and 1× insulin, transferring, selenium (Life Technologies). Human skeletal myocytes (CC-2561) were purchased from Clonetics. Stable C2C12 cell lines with integrated reporters are described in Wu, Z., et al., Mol Cell Biol 20:3951-64 (2000). The MCK-luc, 4RE-luc, MEF2 reporter constructs have been described in Puri, P. L., et al., EMBO Journal 16:369-83 (1997a) and Sartorelli, V., et al., Molecular & Cellular Biology 17:1010-26 (1997). The E2F-luc plasmid is described in Helin, K., et al., Genes Dev 7:1850-61 (1993). The MLC-lacZ-nls plasmid is described in Wu, et al. (2000). Dr. Stuart Schreiber (Harvard University) provided the vector expressing Flag-HDAC1, which is described in Taunton, J., et al., Science 272: 408-11 (1996). Transient transfections were performed using FuGENE 6 transfection reagent (Roche Molecular Biochemicals). Following transfections, luciferase activity was determined using the Dual-Luciferase reporter assay system (Promega) on a microtiter luminescence detection system (MLX, Dynex).
For immunoblotting, cell extracts were obtained after incubating the cells in standard lysis buffer. Western blots were probed with the following antibodies: anti-MHC (MF-20), anti-myogenin (FD5), and anti-tubulin (E7), obtained from the Developmental Studies Hybridoma Bank, University of Iowa. Primary antibodies were visualized with the ECL cheminoluminescent kit (Amersham). Cells were fixed and stained with anti-MHC MF-20 antibodies. Nuclei were visualized by 4′,6′-[…]-2-phenylindole (DAPI). FITC-conjugated or Texas red-conjugated secondary antibodies were employed to reveal the primary antibodies.
C2C12 and CC42 cells were exposed to sodium butyrate 5 mM (Sigma), trichostatin A 50 nM (Upstate Biotechnologies), or valproic acid 10 mM (Sigma) for 24 hours in GM (GM regimen). TSA was removed and the cells cultured in DM for 48 hrs before being analyzed. When indicated (DM regimen), the cells were exposed to deacetylase inhibitors when switched from GM to DM and cultured in their presence for 48 hrs.
Another striking effect induced by DI is their ability to increase the number of nuclei present in MHC positive cells. While approximately 15% of the total nuclei are present in elongated, MHC-positive myotubes not exposed to DI, approximately 75-80% of the total nuclei are detected in hypernucleated MHC-positive myotubes when these have been previously exposed to DI (see FIG. 1D and Table 1). In Table 1, C2C12 cells were either exposed to sodium butyrate, TSA, VPA or left untreated for 24 hours in GM. The medium was replaced with DM without DI, and MHC expression was detected by immunofluorescent staining. Nuclei were visualized with DAPI. The values in parenthesis indicate the percentage of nuclei detected in MHC-positive cells. The values are derived from two independent trials.

Setting [4] is: i.p. to pregnant mice at E 8.5, sacrificed at 10.5, 0.5 to 1 mg/Kg TSA, 200 mg/Kg VPA.

On to `CCCC(CCC)C(=O)O` [VPA, valproic acid], for which the “level of MLC-lacZ transgene expression” value in data set [1] (E 10.5 embryos, vs control embryos) is reported as “higher level of MLC-lacZ transgene expression”. Besides, in data set [1] (MLC1/3F-nLacZ mice injected at day 8.5, sacrificed at day 10.5, TSA [1 mg/ml] (20 ul + 380 ul PBS), VPA 155 mM, one value per embryo, PBS controls 25-32), the “# somites (β-galactosidase staining)” value was 35 and 36 and 33 and 34. Besides, the “levels of MHC in exposed embryos (Western blot)” value in data set [1] (extracts of total embryos) is “augmented the levels of MHC”. Besides, in data set [1] (setting [4]), the “number of MLC expressing somites” value was “consistently increased” and the “number of MyoD expressing myotomes” value is recorded as “consistently increased”. The β-galactosidase-positive nuclei entry in data set [2] was “increased β-galactosidase-positive nuclei”. In data set [3], the “Nuclei/MHC-Positive Cells (number of nuclei)” value was 153 and 187; the “percentage of nuclei detected in MHC-positive cells” value was 81% and 78%; the “MHC expression and frequency of MHC-positive multinucleated cells” value is reported as “effects undistinguishable from those exerted by sodium butyrate”.
On to `CCCC(=O)[O-].[Na+]` [Sodium Butyrate, sodium butyrate], for which, in data set [3], the “Nuclei/MHC-Positive Cells (number of nuclei)” value is 230 and 210; the “percentage of nuclei detected in MHC-positive cells” value was 83% and 84%; the “MHC expression and frequency of MHC-positive multinucleated cells” value was “upregulated MHC expression and displayed a striking increased frequency of larger MHC-positive multinucleated cells”. In data set [3] (C2C12 treated when cultured in DM, 48 hours), the “expression of myogenin and MHC, differentiation” value was “failed to activate expression of both myogenin and the myosin heavy chain (MHC) and to properly differentiate”. The “apoptosis (reduced cell density)” value in data set [3] (cells exposed in DM) is recorded as “high frequency of apoptosis”.
